Assay results from patent US4542137A, “Alkylaminodesoxy-1.4;3.6-dianhydrohexitol nitrates substituted by purine bases and pharmaceutical compositions” (priority 1980, dated 1985).

Test system: mongrel dogs
Assay: circulatory pharmacological effectiveness on narcotised dogs, intravenous
Type: in vivo, dog
Details: dog i.v. ISDN/9c 1, 1d 0.5 mg/kg

Compound: Cn1c(=O)c2c(ncn2CCCN[C@H]2CO[C@H]3[C@@H]2OC[C@@H]3O[N+](=O)[O-])n(C)c1=O [Example 1d, 5-(3-Theophyllin-7-ylpropyl)-amino-5-desoxy-1.4;3.6-dianhydro-L-iditol 2-nitrate]
- APdiast: diastolic aorta pressure (2 min): 67.5 mm.Hg
- APsyst: systolic aorta pressure (2 min): 107.8 mm.Hg
- BFFem: blood flow in the A. femoralis referred to 20 kg body weight (2 min): 42.6 mL/min
- HF: heart frequency (2 min): 145.7
- HLL: heart capacity left, referred to 20 kg body weight (2 min): 0.51 W
- HLR: heart capacity right, referred to 20 kg body weight (2 min): 70.9 mW
- HZV: heart minute volume, referred to 20 kg body weight (2 min): 2.94 L/min
- LVEDP: end diastolic pressure in the left ventricle (2 min): 3.85 mm.Hg
- SV: beat volume, referred to 20 kg body weight (2 min): 21.9 mL
- WAP: pulmonalis resistance, referred to 20 kg body weight (2 min): 0.35 U
- WFem: moralis resistance, referred to 20 kg body weight (2 min): 0.28 KU
- WTP: total peripheral resistance, referred to 20 kg body weight (2 min): 3.73 U
- dp/dt: rate of pressure increase in the left ventricle (2 min): 2915.6 mm.Hg/sec
- APdiast: diastolic aorta pressure (5 min): 77.8 mm.Hg
- APsyst: systolic aorta pressure (5 min): 119.4 mm.Hg
- BFFem: blood flow in the A. femoralis referred to 20 kg body weight (5 min): 40.8 mL/min
- HF: heart frequency (5 min): 131.2
- HLL: heart capacity left, referred to 20 kg body weight (5 min): 0.47 W
- HLR: heart capacity right, referred to 20 kg body weight (5 min): 58.2 mW
- HZV: heart minute volume, referred to 20 kg body weight (5 min): 2.40 L/min
- LVEDP: end diastolic pressure in the left ventricle (5 min): 4.78 mm.Hg
- SV: beat volume, referred to 20 kg body weight (5 min): 19.6 mL
- WAP: pulmonalis resistance, referred to 20 kg body weight (5 min): 0.38 U
- WFem: moralis resistance, referred to 20 kg body weight (5 min): 0.32 KU
- WTP: total peripheral resistance, referred to 20 kg body weight (5 min): 5.16 U
- dp/dt: rate of pressure increase in the left ventricle (5 min): 2671.9 mm.Hg/sec
- APdiast: diastolic aorta pressure (7 min): 75.9 mm.Hg
- APsyst: systolic aorta pressure (7 min): 122.8 mm.Hg
- BFFem: blood flow in the A. femoralis referred to 20 kg body weight (7 min): 42.7 mL/min
- HF: heart frequency (7 min): 119.5
- HLL: heart capacity left, referred to 20 kg body weight (7 min): 0.47 W
- HLR: heart capacity right, referred to 20 kg body weight (7 min): 56.8 mW
- HZV: heart minute volume, referred to 20 kg body weight (7 min): 2.40 L/min
- LVEDP: end diastolic pressure in the left ventricle (7 min): 5.16 mm.Hg
- SV: beat volume, referred to 20 kg body weight (7 min): 21.3 mL
- WAP: pulmonalis resistance, referred to 20 kg body weight (7 min): 0.37 U
- WFem: moralis resistance, referred to 20 kg body weight (7 min): 0.30 KU
- WTP: total peripheral resistance, referred to 20 kg body weight (7 min): 5.10 U
- dp/dt: rate of pressure increase in the left ventricle (7 min): 2662.5 mm.Hg/sec
- APdiast: diastolic aorta pressure (10 min): 74.6 mm.Hg
- APsyst: systolic aorta pressure (10 min): 124.7 mm.Hg
- BFFem: blood flow in the A. femoralis referred to 20 kg body weight (10 min): 46.2 mL/min
- HF: heart frequency (10 min): 110.2
- HLL: heart capacity left, referred to 20 kg body weight (10 min): 0.47 W
- HLR: heart capacity right, referred to 20 kg body weight (10 min): 57.1 mW
- HZV: heart minute volume, referred to 20 kg body weight (10 min): 2.38 L/min
- LVEDP: end diastolic pressure in the left ventricle (10 min): 4.69 mm.Hg
- SV: beat volume, referred to 20 kg body weight (10 min): 22.9 mL
- WAP: pulmonalis resistance, referred to 20 kg body weight (10 min): 0.41 U
- WFem: moralis resistance, referred to 20 kg body weight (10 min): 0.28 KU
- WTP: total peripheral resistance, referred to 20 kg body weight (10 min): 5.10 U
- dp/dt: rate of pressure increase in the left ventricle (10 min): 2465.6 mm.Hg/sec
- APdiast: diastolic aorta pressure (15 min): 75.9 mm.Hg
- APsyst: systolic aorta pressure (15 min): 126.0 mm.Hg
- BFFem: blood flow in the A. femoralis referred to 20 kg body weight (15 min): 48.3 mL/min
- HF: heart frequency (15 min): 107.7
- HLL: heart capacity left, referred to 20 kg body weight (15 min): 0.44 W
- HLR: heart capacity right, referred to 20 kg body weight (15 min): 53.8 mW
- HZV: heart minute volume, referred to 20 kg body weight (15 min): 2.26 L/min
- SV: beat volume, referred to 20 kg body weight (15 min): 22.0 mL
- WAP: pulmonalis resistance, referred to 20 kg body weight (15 min): 0.43 U
- WFem: moralis resistance, referred to 20 kg body weight (15 min): 0.28 KU
- WTP: total peripheral resistance, referred to 20 kg body weight (15 min): 5.51 U
- dp/dt: rate of pressure increase in the left ventricle (15 min): 2465.6 mm.Hg/sec
- APdiast: diastolic aorta pressure (20 min): 78.7 mm.Hg
- APsyst: systolic aorta pressure (20 min): 127.9 mm.Hg
- BFFem: blood flow in the A. femoralis referred to 20 kg body weight (20 min): 51.5 mL/min
- HF: heart frequency (20 min): 104.0
- HLL: heart capacity left, referred to 20 kg body weight (20 min): 0.45 W
- HLR: heart capacity right, referred to 20 kg body weight (20 min): 52.8 mW
- HZV: heart minute volume, referred to 20 kg body weight (20 min): 2.24 L/min
- LVEDP: end diastolic pressure in the left ventricle (20 min): 5.62 mm.Hg
- SV: beat volume, referred to 20 kg body weight (20 min): 22.3 mL
- WAP: pulmonalis resistance, referred to 20 kg body weight (20 min): 0.41 U
- WFem: moralis resistance, referred to 20 kg body weight (20 min): 0.27 KU
- WTP: total peripheral resistance, referred to 20 kg body weight (20 min): 5.71 U
- dp/dt: rate of pressure increase in the left ventricle (20 min): 2428.1 mm.Hg/sec
- APdiast: diastolic aorta pressure (25 min): 79.7 mm.Hg
- APsyst: systolic aorta pressure (25 min): 127.5 mm.Hg
- BFFem: blood flow in the A. femoralis referred to 20 kg body weight (25 min): 52.9 mL/min
- HLL: heart capacity left, referred to 20 kg body weight (25 min): 0.45 W
- HLR: heart capacity right, referred to 20 kg body weight (25 min): 50.9 mW
- HZV: heart minute volume, referred to 20 kg body weight (25 min): 2.24 L/min
- LVEDP: end diastolic pressure in the left ventricle (25 min): 5.44 mm.Hg
- SV: beat volume, referred to 20 kg body weight (25 min): 22.3 mL
- WAP: pulmonalis resistance, referred to 20 kg body weight (25 min): 0.44 U
- WFem: moralis resistance, referred to 20 kg body weight (25 min): 0.27 KU
- WTP: total peripheral resistance, referred to 20 kg body weight (25 min): 5.78 U
- dp/dt: rate of pressure increase in the left ventricle (25 min): 2353.1 mm.Hg/sec
- APdiast: diastolic aorta pressure (30 min): 81.6 mm.Hg
- APsyst: systolic aorta pressure (30 min): 130.9 mm.Hg
- BFFem: blood flow in the A. femoralis referred to 20 kg body weight (30 min): 54.1 mL/min
- HF: heart frequency (30 min): 101.2
- HLL: heart capacity left, referred to 20 kg body weight (30 min): 0.45 W
- HLR: heart capacity right, referred to 20 kg body weight (30 min): 50.5 mW
- HZV: heart minute volume, referred to 20 kg body weight (30 min): 2.18 L/min
- LVEDP: end diastolic pressure in the left ventricle (30 min): 5.72 mm.Hg
- SV: beat volume, referred to 20 kg body weight (30 min): 22.1 mL
- WAP: pulmonalis resistance, referred to 20 kg body weight (30 min): 0.45 U
- WFem: moralis resistance, referred to 20 kg body weight (30 min): 0.26 KU
- WTP: total peripheral resistance, referred to 20 kg body weight (30 min): 6.10 U
- APdiast: diastolic aorta pressure (40 min): 83.4 mm.Hg
- APsyst: systolic aorta pressure (40 min): 133.1 mm.Hg
